Experimental data: patent US7973061B2, “Anaplastic lymphoma kinase modulators and methods of use” (Exelixis, Inc., priority 2004, dated 2011)

Target: T1, ALK (baculovirus expressed human ALK kinase domain F1098-K1410) (Homo sapiens, UniProt Q9UM73)
T1 construct: human ALK kinase domain F1098-K1410; made in house
Assay: biochemical
Conditions: 1 μM ATP, 4 μM poly-AEKY, 12 nM ALK, 2 hours at ambient temperature; read-out: ALK IC50
In short: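 Inhibitors were tested at 10 concentrations, and IC50 was derived from a sigmoidal fit (Min, Max, Hill slope). Kinase activity was measured as percent ATP left after a 2 h reaction at room temperature, detected by luciferase-luciferin chemiluminescence. The ATP level was set close to KM for the ALK kinase domain F1098-K1410.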

T1 sequence (Q9UM73 1098-1410): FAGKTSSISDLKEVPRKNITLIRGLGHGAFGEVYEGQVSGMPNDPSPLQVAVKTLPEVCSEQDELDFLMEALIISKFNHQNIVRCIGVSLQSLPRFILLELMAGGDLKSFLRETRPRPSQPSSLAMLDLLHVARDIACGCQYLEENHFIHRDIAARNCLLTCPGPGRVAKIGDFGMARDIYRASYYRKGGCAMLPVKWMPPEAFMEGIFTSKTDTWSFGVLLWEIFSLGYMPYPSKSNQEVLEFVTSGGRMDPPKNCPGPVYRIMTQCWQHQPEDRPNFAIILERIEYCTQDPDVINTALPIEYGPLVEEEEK

SMILES | IC50 [µM]
CCC(NC(=O)c1csc(CNC(=O)COc2ccc(OC(F)(F)F)cc2)n1)c1ccccc1 (centres unmarked) [Entry 65, N-(1-phenylpropyl)-2-({[({4-[(trifluoromethyl)oxy]phenyl}oxy)acetyl]amino}methyl)-1,3-thiazole-4-carboxamide] | 0.05 to 0.5
CC(NC(=O)c1csc(CNC(=O)COc2ccc(OC(F)(F)F)cc2)n1)c1ccccc1 (centres unmarked) [Entry 108, N-(1-phenylethyl)-2-({[({4-[(trifluoromethyl)oxy]phenyl}oxy)acetyl]amino}methyl)-1,3-thiazole-4-carboxamide] | 0.05 to 0.5
O=C(COc1ccc(OC(F)(F)F)cc1)NCc1nc(C(=O)N2CC[C@@H]3CCCC[C@@H]3C2)cs1 [Entry 271, N-({4-[(4aS,8aS)-octahydroisoquinolin-2(1H)-ylcarbonyl]-1,3-thiazol-2-yl}methyl)-2-({4-[(trifluoromethyl)oxy]phenyl}oxy)acetamide] | 0.5 to 2
COc1ccccc1CNC(=O)c1coc(CNC(=O)COc2ccc(OC(F)(F)F)cc2)n1 [Entry 203, N-{[2-(methyloxy)phenyl]methyl}-2-({[({4-[(trifluoromethyl)oxy]phenyl}oxy)acetyl]amino}methyl)-1,3-oxazole-4-carboxamide] | 0.05 to 0.5
O=C(COc1ccc(OC(F)(F)F)cc1)NCc1nc(C(=O)NCc2ccc(F)cc2C(F)(F)F)cs1 [Entry 244, N-{[4-fluoro-2-(trifluoromethyl)phenyl]methyl}-2-({[({4-[(trifluoromethyl)oxy]phenyl}oxy)acetyl]amino}methyl)-1,3-thiazole-4-carboxamide] | 0.5 to 2
O=C(COc1ccc(OC(F)(F)F)cc1)NCc1nc(C(=O)NCCc2cccnc2)cs1 [Entry 51, N-(2-pyridin-3-ylethyl)-2-({[({4-[(trifluoromethyl)oxy]phenyl}oxy)acetyl]amino}methyl)-1,3-thiazole-4-carboxamide] | 0.05 to 0.5
O=C(COc1ccc(OC(F)(F)F)cc1)NCc1nc(C(=O)NCc2ccc(F)c(Cl)c2)cs1 [Entry 191, N-[(3-chloro-4-fluorophenyl)methyl]-2-({[({4-[(trifluoromethyl)oxy]phenyl}oxy)acetyl]amino}methyl)-1,3-thiazole-4-carboxamide] | 0.05 to 0.5
Cc1cc(Cl)cc(Cl)c1CNC(=O)c1csc(CNC(=O)COc2ccc(OC(F)(F)F)cc2)n1 [Entry 166, N-[(2,4-dichloro-6-methylphenyl)methyl]-2-({[({4-[(trifluoromethyl)oxy]phenyl}oxy)acetyl]amino}methyl)-1,3-thiazole-4-carboxamide] | 0.05 to 0.5
CCc1ccc(NC(=O)NCc2nc(C(=O)NCCc3ccccc3F)cs2)cc1 [Entry 101, 2-[({[(4-ethylphenyl)amino]carbonyl}amino)methyl]-N-[2-(2-fluorophenyl)ethyl]-1,3-thiazole-4-carboxamide] | 0.05 to 0.5
COCC(C)NC(=O)c1csc(CNC(=O)COc2ccc(OC(F)(F)F)cc2)n1 (centres unmarked) [Entry 268, N-[1-methyl-2-(methyloxy)ethyl]-2-({[({4-[(trifluoromethyl)oxy]phenyl}oxy)acetyl]amino}methyl)-1,3-thiazole-4-carboxamide] | 0.5 to 2
O=C(COc1ccc(OC(F)(F)F)cc1)NCc1nc(C(=O)NCCc2ccc(Br)cc2)cs1 [Entry 90, N-[2-(4-bromophenyl)ethyl]-2-({[({4-[(trifluoromethyl)oxy]phenyl}oxy)acetyl]amino}methyl)-1,3-thiazole-4-carboxamide] | 0.05 to 0.5
O=C(COc1ccc(Br)cc1)NCc1nc(C(=O)NCCc2cccc(Cl)c2)cs1 [Entry 109, 2-[({[(4-bromophenyl)oxy]acetyl}amino)methyl]-N-[2-(3-chlorophenyl)ethyl]-1,3-thiazole-4-carboxamide] | 0.05 to 0.5
CCOc1ccccc1CCNC(=O)c1csc(CNC(=O)COc2ccc(OC(F)(F)F)cc2)n1 [Entry 60, N-{2-[2-(ethyloxy)phenyl]ethyl}-2-({[({4-[(trifluoromethyl)oxy]phenyl}oxy)acetyl]amino}methyl)-1,3-thiazole-4-carboxamide] | 0.05 to 0.5
O=C(COc1ccc(OC(F)(F)F)cc1)NCc1nc(C(=O)NCc2cccs2)cs1 [Entry 164, N-(2-thienylmethyl)-2-({[({4-[(trifluoromethyl)oxy]phenyl}oxy)acetyl]amino}methyl)-1,3-thiazole-4-carboxamide] | 0.05 to 0.5
O=C(COc1ccc(OC(F)(F)F)cc1)NCc1nc(C(=O)NCC2CCCCC2)cs1 [Entry 172, N-(cyclohexylmethyl)-2-({[({4-[(trifluoromethyl)oxy]phenyl}oxy)acetyl]amino}methyl)-1,3-thiazole-4-carboxamide] | 0.05 to 0.5
O=C(COc1ccc(OC(F)(F)F)cc1)NCc1nc(C(=O)NCC2c3ccccc3CCc3ccccc32)cs1 [Entry 4, N-(10,11-dihydro-5H-dibenzo[a,d]cyclohepten-5-ylmethyl)-2-({[({4-[(trifluoromethyl)oxy]phenyl}oxy)acetyl]amino}methyl)-1,3-thiazole-4-carboxamide] | < 0.05

SMILES | IC50 [µM]
COc1cccc(CNC(=O)c2csc(CNC(=O)c3cccnc3Oc3ccc(Cl)cc3)n2)c1OC [Entry 144, N-({4-[({[2,3-bis(methyloxy)phenyl]methyl}amino)carbonyl]-1,3-thiazol-2-yl}methyl)-2-[(4-chlorophenyl)oxy]pyridine-3-carboxamide] | 0.05 to 0.5
CCOc1cccc(CCNC(=O)c2coc(CNC(=O)COc3ccc(OC(F)(F)F)cc3)n2)c1 [Entry 230, N-{2-[3-(ethyloxy)phenyl]ethyl}-2-({[({4-[(trifluoromethyl)oxy]phenyl}oxy)acetyl]amino}methyl)-1,3-oxazole-4-carboxamide] | 0.5 to 2
CCOc1ccc(CCNC(=O)c2csc(CNC(=O)COc3ccc(OC(F)(F)F)cc3)n2)cc1 [Entry 68, N-{2-[4-(ethyloxy)phenyl]ethyl}-2-({[({4-[(trifluoromethyl)oxy]phenyl}oxy)acetyl]amino}methyl)-1,3-thiazole-4-carboxamide] | 0.05 to 0.5
COc1ccc([C@H](C)NC(=O)c2csc(CNC(=O)COc3ccc(OC(F)(F)F)cc3)n2)cc1 [Entry 183, N-{(1S)-1-[4-(methyloxy)phenyl]ethyl}-2-({[({4-[(trifluoromethyl)oxy]phenyl}oxy)acetyl]amino}methyl)-1,3-thiazole-4-carboxamide] | 0.05 to 0.5
O=C(COc1ccc(OC(F)(F)F)cc1)NCc1nc(C(=O)NCc2ccc(Cl)c(Cl)c2)cs1 [Entry 75, N-[(3,4-dichlorophenyl)methyl]-2-({[({4-[(trifluoromethyl)oxy]phenyl}oxy)acetyl]amino}methyl)-1,3-thiazole-4-carboxamide] | 0.05 to 0.5
CC(C)c1ccc(OCC(=O)NCc2nc(C(=O)NCCc3cccc(Cl)c3)cs2)cc1 [Entry 72, N-[2-(3-chlorophenyl)ethyl]-2-{[({[4-(1-methylethyl)phenyl]oxy}acetyl)amino]methyl}-1,3-thiazole-4-carboxamide] | 0.05 to 0.5
O=C(COc1ccc(OC(F)(F)F)cc1)NCc1nc(C(=O)NCc2ccc(Cl)cc2Cl)cs1 [Entry 64, N-[(2,4-dichlorophenyl)methyl]-2-({[({4-[(trifluoromethyl)oxy]phenyl}oxy)acetyl]amino}methyl)-1,3-thiazole-4-carboxamide] | 0.05 to 0.5
Cc1ccc(CCNC(=O)c2csc(CNC(=O)COc3ccc(OC(F)(F)F)cc3)n2)cc1C [Entry 56, N-[2-(3,4-dimethylphenyl)ethyl]-2-({[({4-[(trifluoromethyl)oxy]phenyl}oxy)acetyl]amino}methyl)-1,3-thiazole-4-carboxamide] | 0.05 to 0.5
O=C(COc1ccc(OC(F)(F)F)cc1)NCc1nc(C(=O)NCC(F)(F)F)cs1 [Entry 280, N-(2,2,2-trifluoroethyl)-2-({[({4-[(trifluoromethyl)oxy]phenyl}oxy)acetyl]amino}methyl)-1,3-thiazole-4-carboxamide] | 0.5 to 2
Cc1ccccc1CCNC(=O)c1csc(CNC(=O)COc2ccc(OC(F)(F)F)cc2)n1 [Entry 15, N-[2-(2-methylphenyl)ethyl]-2-({[({4-[(trifluoromethyl)oxy]phenyl}oxy)acetyl]amino}methyl)-1,3-thiazole-4-carboxamide] | < 0.05
COc1ccc(CCNC(=O)c2coc(CNC(=O)COc3ccc(OC(F)(F)F)cc3)n2)cc1OC [Entry 155, N-{2-[3,4-bis(methyloxy)phenyl]ethyl}-2-({[({4-[(trifluoromethyl)oxy]phenyl}oxy)acetyl]amino}methyl)-1,3-oxazole-4-carboxamide] | 0.05 to 0.5
CCCCCCC(C)NC(=O)c1csc(CNC(=O)COc2ccc(OC(F)(F)F)cc2)n1 (centres unmarked) [Entry 220, N-(1-methylheptyl)-2-({[({4-[(trifluoromethyl)oxy]phenyl}oxy)acetyl]amino}methyl)-1,3-thiazole-4-carboxamide] | 0.5 to 2
CCOc1ccccc1CNC(=O)c1csc(CNC(=O)COc2ccc(OC(F)(F)F)cc2)n1 [Entry 58, N-{[2-(ethyloxy)phenyl]methyl}-2-({[({4-[(trifluoromethyl)oxy]phenyl}oxy)acetyl]amino}methyl)-1,3-thiazole-4-carboxamide] | 0.05 to 0.5
CC(NC(=O)c1coc(CNC(=O)COc2ccc(OC(F)(F)F)cc2)n1)c1cccc2ccccc12 (centres unmarked) [Entry 99, N-(1-naphthalen-1-ylethyl)-2-({[({4-[(trifluoromethyl)oxy]phenyl}oxy)acetyl]amino}methyl)-1,3-oxazole-4-carboxamide] | 0.05 to 0.5
O=C(COc1ccc(OC(F)(F)F)cc1)NCc1nc(C(=O)N[C@@H]2C[C@H]3CC[C@@H]2C3)cs1 [Entry 105, N-[(1R,2R,4S)-bicyclo[2.2.1]hept-2-yl]-2-({[({4-[(trifluoromethyl)oxy]phenyl}oxy)acetyl]amino}methyl)-1,3-thiazole-4-carboxamide] | 0.05 to 0.5
NC(=O)[C@H](Cc1ccccc1)NC(=O)c1csc(CNC(=O)COc2ccc(OC(F)(F)F)cc2)n1 [Entry 188, Nalpha-{[2-({[({4-[(trifluoromethyl)oxy]phenyl}oxy)acetyl]amino}methyl)-1,3-thiazol-4-yl]carbonyl}-L-phenylalaninamide] | 0.05 to 0.5
